The record followed here is patent US20090233910A1, “Npy antagonists, preparation and uses” (CEREP, priority 2005, published 2009).

What is called IC50 is the midpoint of a concentration-inhibition curve.

Assay [1] addresses T1, NPY Y1 receptor (Homo sapiens, UniProt P25929).
T1 construct: host or cells: SK-N-MC cells (whole-cell suspension)
T1 sequence (P25929 1-384): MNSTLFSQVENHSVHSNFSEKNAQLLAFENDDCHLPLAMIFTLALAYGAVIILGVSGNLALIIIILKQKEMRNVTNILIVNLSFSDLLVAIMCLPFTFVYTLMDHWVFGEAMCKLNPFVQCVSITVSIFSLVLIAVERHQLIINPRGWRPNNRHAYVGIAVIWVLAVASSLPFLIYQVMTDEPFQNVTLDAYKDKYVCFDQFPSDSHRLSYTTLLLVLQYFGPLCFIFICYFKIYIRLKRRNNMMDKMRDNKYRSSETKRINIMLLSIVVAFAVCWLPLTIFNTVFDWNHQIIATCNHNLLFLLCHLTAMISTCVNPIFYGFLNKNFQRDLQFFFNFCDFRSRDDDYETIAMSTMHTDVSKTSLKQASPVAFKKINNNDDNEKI
The assay is described as follows: cAMP measurement test in SK-N-MC cells (shift of NPY dose-effect curves, forskoline-stimulated). Format: cell-based. As to conditions: Schild analysis vs NPY, read-out: pA2 Y1 (converted). Here is the method:
The SK-N-MC cells are cultured in 96-well plates. After aspirating the culture medium, the cells are washed with a phosphate buffer pH 7.4 (Invitrogen ref. 14190-094), then lifted with a Versene solution (Invitrogen, ref 15040-033). The cells are centrifuged at 500×g for 10 minutes at 4° C. They are resuspended in a stimulation buffer containing isobutyl-methyl-xanthine in sufficient concentration to inhibit the phosphodiesterases (Flashplate kit, Perkin Elmer). The tested compounds are added 10 minutes before depositing the NPY (Bachem, H3322) in variable concentration, then the 300 nM forskoline (Sigma, F6886). The cells are in cubated 1 hour at ambient temperature to allow cAMP production whose levels are measured using the Flashplate method after 2 hours incubation with the cAMP tracer [^125I]. The results are expressed in pA2 form observing the displacement of NPY dose-effect curves in the absence and presence of increasing concentrations of test compound [Schild, 1949, pAx and competitive drug antagonism, Br. J. Pharmacol., 4, 277-280].

For assay [2], the target named is T2, human Y4 receptor (Homo sapiens, UniProt P50391).
T2 construct: expressed in transfected cells; host or cells: CHO cells (CHO-Y4H), membrane preparation
T2 sequence (P50391 whole entry): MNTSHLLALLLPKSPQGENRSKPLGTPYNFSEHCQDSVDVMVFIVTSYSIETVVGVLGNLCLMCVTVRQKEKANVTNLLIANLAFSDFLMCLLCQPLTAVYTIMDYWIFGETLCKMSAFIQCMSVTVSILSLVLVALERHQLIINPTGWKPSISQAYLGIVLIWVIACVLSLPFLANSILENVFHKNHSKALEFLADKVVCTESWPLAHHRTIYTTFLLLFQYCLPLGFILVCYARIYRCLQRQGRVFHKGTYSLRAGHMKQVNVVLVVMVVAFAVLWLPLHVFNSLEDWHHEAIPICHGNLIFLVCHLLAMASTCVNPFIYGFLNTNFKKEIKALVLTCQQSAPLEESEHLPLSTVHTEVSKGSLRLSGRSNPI
Put plainly: Binding test to the NPY Y4 receptor ([125I]-human PP, CHO cell membranes). As to conditions: human Y4, [125I]-human PP. Here is the method: The CHO cells expressing either the Y4 or the Y5 human recombinant receptor are cultured in DMEM medium to which is added 5% dialysed foetal calf serum, 10 mM Hepes buffer and 0.8 g/l sodium bicarbonate. They are lifted from their support using a 36 mM citrate buffer without trypsin and without EDTA, and washed in PBS buffer free of Ca^2+ and of Mg^2+. The cell residues are stored at (−80° C.) until fractioning.
The cell residue is redissolved in 10 mM TRIS buffer, 3 mM MgCl2, pH 7.4 and separated with polytron. After centrifuging at 20 000×g the residue is redissolved in this same buffer, potter separated and aliquoted for storage in liquid nitrogen to around 5 mg/ml proteins.
Approximately 80 μg of membranes of CHO cells having stable expression of the human Y4 receptor are incubated for 60 min at 30° C. in 200 μl Krebs-Ringer buffer (pH 7.4) containing 20 mM Hepes, 1% bovine serum albumin, 0.25 mg/ml bacitracin and 0.1 nM of [^125I]-human PP (Pancreatic Polypeptide, Perkin Elmer, NEX 315). The reaction is halted by filtering through Wathman GF/C filters and washing with 3 times 4 ml of buffer at 4° C. The radioactivity deposited on the filter is counted with a gamma counter (Whizard 1470, Wallac, Perkin Elmer). Non-specific binding is determined in the presence of 0.3 μM of human PP (Neosystem, SC104). […]

Assay [3] concerns the target T3, NPY Y2 receptor (Homo sapiens, UniProt P49146).
T3 construct: host or cells: KAN.TS cells (whole-cell suspension)
T3 sequence (P49146 1-381): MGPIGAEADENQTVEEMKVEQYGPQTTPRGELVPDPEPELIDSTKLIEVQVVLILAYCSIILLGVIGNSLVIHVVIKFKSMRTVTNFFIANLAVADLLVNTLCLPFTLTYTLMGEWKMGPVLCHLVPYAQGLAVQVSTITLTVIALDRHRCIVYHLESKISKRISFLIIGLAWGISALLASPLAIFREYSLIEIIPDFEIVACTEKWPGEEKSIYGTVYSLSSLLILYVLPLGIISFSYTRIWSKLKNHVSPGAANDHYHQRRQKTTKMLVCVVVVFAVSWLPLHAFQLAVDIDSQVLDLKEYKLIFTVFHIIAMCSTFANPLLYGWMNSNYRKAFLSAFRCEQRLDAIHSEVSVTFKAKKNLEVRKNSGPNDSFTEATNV
Put plainly: Binding test to the NPY Y2 receptor ([125I]-PYY, KAN.TS cell suspension). The protocol:
The KAN.TS cells (Amersham RPNQ0081) are cultured at 37° C. in DMEM Glutamax medium (Life Technology ref. 61965026) containing 15% foetal calf serum (Invitrogen), 1% L-Glutamine (Invitrogen ref.250300-032), 50 IU/ml penicillin and 50 μg/ml of streptomycin (Invitrogen ref. 15070022) in a humid atmosphere containing 5% CO2.
After aspirating the culture medium, the cells are washed with phosphate buffer pH 7.4 (Sigma ref. D5652), then lifted with a solution of PBS^−, 0.5 mM EDTA (ethylenediaminetetraacetic acid) (Sigma ref ED 2SS). […] The cells are counted and centrifuged at 1500 rpm for 10 min then resuspended in the freeze buffer and aliquoted into ten million cells per millilitre of freeze buffer, and stored at −70° C.
The cell suspension with 25000 cells/ml is incubated 1 h at 37° C. in an incubation buffer pH 7.4 containing 50 mM HEPES/NaOH, 2.5 mM calcium chloride, 1 mM magnesium chloride, 0.025% sodium azide, 1 mg/ml bovine albumin and 15 pM of [^125I]-PYY (Perkin Elmer, NEX341). […] The radioactivity deposited on the filter is measured by liquid scintillation count (TopCount, Packard). Non-specific binding is determined in the presence of 1 μM NPY (Bachem, H3322). […]

With `CCCCN1CCC(Oc2ccc(C(=O)Nc3ccc(Oc4ccc(NC(=O)NC(CC)CC)cc4OC)cc3)cc2)CC1` [Example 103, 4-(1-Butyl-piperidin-4-yloxy)-N-(4-{4-[3-(1-ethyl-propyl)-ureido]-2-methoxy-phenoxy}-phenyl)-benzamide], the Kb in assay [1] was 6.31 nM. In addition, the IC50 was 2620 nM in assay [2] and > 10000 nM in assay [3] (KAN.TS cells, [125I]-PYY). In addition, the inhibition at 10 µM in assay [3] (inhibition of specific binding at 10 μM of compound, read-out: % Inh at 10 μM Y2) came out at 10%.
